# Target: HIS-TGFβR1 T204D (Homo sapiens (Human), UniProt P36897, T204D)
# Assay: HTRF probe-displacement assay, HIS-TGFβR1 T204D
# Format: binding
# Conditions: 1 hour at room temperature
# Chain of HIS-TGFβR1 T204D (P36897 34-503 T204D): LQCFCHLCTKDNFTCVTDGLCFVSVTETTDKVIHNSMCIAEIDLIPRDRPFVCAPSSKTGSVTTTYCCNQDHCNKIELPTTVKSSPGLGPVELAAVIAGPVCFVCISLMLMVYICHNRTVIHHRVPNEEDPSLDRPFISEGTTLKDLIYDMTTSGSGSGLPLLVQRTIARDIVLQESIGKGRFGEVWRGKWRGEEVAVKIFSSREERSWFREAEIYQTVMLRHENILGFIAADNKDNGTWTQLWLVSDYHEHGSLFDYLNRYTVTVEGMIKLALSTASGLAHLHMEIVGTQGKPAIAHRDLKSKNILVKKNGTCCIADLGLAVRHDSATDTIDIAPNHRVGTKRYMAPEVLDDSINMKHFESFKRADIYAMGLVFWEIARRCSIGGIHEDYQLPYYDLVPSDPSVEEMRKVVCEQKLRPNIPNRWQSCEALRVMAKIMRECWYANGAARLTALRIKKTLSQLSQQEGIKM
row,IC50,SMILES
1,0.19 nM,"CC(=O)Nc1cc(Nc2nc(-c3cccc(C(F)F)n3)nn3cccc23)ccn1 [Example 13, N-[4-({2-[6-(difluoromethyl)pyridin-2-yl]pyrrolo[2,1-f][1,2,4]triazin-4-yl}amino)pyridin-2-yl]acetamide]"
2,1.9 nM,"FC(F)(F)c1cccc(-c2nc(Nc3ccncc3Cl)c3cccn3n2)n1 [Example 86, 3-chloro-N-{2-[6-(trifluoromethyl)pyridin-2-yl]pyrrolo[2,1-f][1,2,4]triazin-4-yl}pyridin-4-amine]"
3,140 nM,"O=C(N[C@@H]1CCC[C@@H]1O)c1cnccc1Nc1nc(-c2cccc(C(F)F)n2)nn2cccc12 [Example 198, 4-({2-[6-(difluoromethyl)pyridin-2-yl]pyrrolo[2,1-f][1,2,4]triazin-4-yl}amino)-N-[(1R,2S)-2-hydroxycyclopentyl]pyridine-3-carboxamide]"
4,5.4 nM,"COc1cccc(-c2nc(Nc3ccncc3Cl)c3cccn3n2)n1 [Example 60, 3-chloro-N-[2-(6-methoxypyridin-2-yl)pyrrolo[2,1-f][1,2,4]triazin-4-yl]pyridin-4-amine]"
5,21 nM,"O=C(NC1CCOC1)c1cnccc1Nc1nc(-c2cccc(C(F)F)n2)nn2cccc12 (stereo not shown) [Example 177, 4-({2-[6-(difluoromethyl)pyridin-2-yl]pyrrolo[2,1-f][1,2,4]triazin-4-yl}amino)-N-(oxolan-3-yl)pyridine-3-carboxamide]"
6,1.6 nM,"CCC[C@@H](CO)NCc1ccn2nc(-c3ccccn3)nc(Nc3ccncc3F)c12 [Example 273, (2S)-2-[({4-[(3-fluoropyridin-4-yl)amino]-2-(pyridin-2-yl)pyrrolo[2,1-f][1,2,4]triazin-5-yl}methyl)amino]pentan-1-ol]"
7,10 nM,"O=C(CN1CC[C@H](O)C1)Nc1cc(Nc2nc(-c3cccc(C(F)(F)F)n3)nn3cccc23)ccn1 [Example 325, 2-[(3S)-3-hydroxypyrrolidin-1-yl]-N-[4-({2-[6-(trifluoromethyl)pyridin-2-yl]pyrrolo[2,1-f][1,2,4]triazin-4-yl}amino)pyridin-2-yl]acetamide]"
8,480 nM,"O=C(N[C@H]1CCCC[C@@H]1O)c1cnccc1Nc1nc(-c2cccc(C(F)F)n2)nn2cccc12 [Example 175, 4-({2-[6-(difluoromethyl)pyridin-2-yl]pyrrolo[2,1-f][1,2,4]triazin-4-yl}amino)-N-[(1S,2S)-2-hydroxycyclohexyl]pyridine-3-carboxamide]"
9,2.2 nM,"OC1CCC(NCc2ccn3nc(-c4ccccn4)nc(Nc4ccncc4F)c23)CC1 (stereo not shown) [Example 236, 4-[({4-[(3-fluoropyridin-4-yl)amino]-2-(pyridin-2-yl)pyrrolo[2,1-f][1,2,4]triazin-5-yl}methyl)amino]cyclohexan-1-ol]"
10,76 nM,"Cc1cccc(-c2nc(Nc3ccncc3)c3cc(C(=O)NCCCN4CCCC4)cn3n2)n1 [Example 50, 2-(6-methylpyridin-2-yl)-4-[(pyridin-4-yl)amino]-N-[3-(pyrrolidin-1-yl)propyl]pyrrolo[2,1-f][1,2,4]triazine-6-carboxamide]"
11,610 nM,"Cn1nccc1-c1nc(Nc2ccncc2F)c2cccn2n1 [Example 10, 3-fluoro-N-[2-(1-methyl-1H-pyrazol-5-yl)pyrrolo[2,1-f][1,2,4]triazin-4-yl]pyridin-4-amine]"
12,4900 nM,"COc1cccc(-c2nc(Nc3ccncc3F)c3c(OCCN4CCCC4)ccn3n2)n1 [Example 45, 3-fluoro-N-[2-(6-methoxypyridin-2-yl)-5-[2-(pyrrolidin-1-yl)ethoxy]pyrrolo[2,1-f][1,2,4]triazin-4-yl]pyridin-4-amine]"
13,8.5 nM,"CN1CCN(CCCNC(=O)c2cnccc2Nc2nc(-c3cccc(C(F)F)n3)nn3cccc23)CC1 [Example 176, 4-({2-[6-(difluoromethyl)pyridin-2-yl]pyrrolo[2,1-f][1,2,4]triazin-4-yl}amino)-N-[3-(4-methylpiperazin-1-yl)propyl]pyridine-3-carboxamide]"
14,1.1 nM,"FC(F)c1cccc(-c2nc(Nc3ccncc3Cl)c3cccn3n2)n1 [Example 80, 3-chloro-N-{2-[6-(difluoromethyl)pyridin-2-yl]pyrrolo[2,1-f][1,2,4]triazin-4-yl}pyridin-4-amine]"
15,1.7 nM,"CC(C)n1cc(NCc2ccn3nc(-c4ccccn4)nc(Nc4ccncc4F)c23)cn1 [Example 302, 3-fluoro-N-[5-({[1-(propan-2-yl)-1H-pyrazol-4-yl]amino}methyl)-2-(pyridin-2-yl)pyrrolo[2,1-f][1,2,4]triazin-4-yl]pyridin-4-amine]"
16,3.2 nM,"O[C@H]1CC[C@H](NCc2ccn3nc(-c4ccccn4)nc(Nc4ccncc4F)c23)CC1 [Example 288, (1R,4R)-4-[({4-[(3-fluoropyridin-4-yl)amino]-2-(pyridin-2-yl)pyrrolo[2,1-f][1,2,4]triazin-5-yl}methyl)amino]cyclohexan-1-ol]"
17,1700 nM,"COc1cccc(-c2nc(Nc3ccncc3F)c3cc(CNCC(C)(C)O)cn3n2)n1 [Example 207, 1-[({4-[(3-fluoropyridin-4-yl)amino]-2-(6-methoxypyridin-2-yl)pyrrolo[2,1-f][1,2,4]triazin-6-yl}methyl)amino]-2-methylpropan-2-ol]"

row,IC50,SMILES
1,64 nM,"O=C(NCc1nc[nH]n1)c1cnccc1Nc1nc(-c2cccc(C(F)F)n2)nn2cccc12 [Example 191, 4-({2-[6-(difluoromethyl)pyridin-2-yl]pyrrolo[2,1-f][1,2,4]triazin-4-yl}amino)-N-(1H-1,2,4-triazol-3-ylmethyl)pyridine-3-carboxamide]"
2,< 0.25 nM,"CC(C)(O)CNCc1ccn2nc(-c3ccc(F)cn3)nc(Nc3ccncc3F)c12 [Example 235, 1-({[2-(5-fluoropyridin-2-yl)-4-[(3-fluoropyridin-4-yl)amino]pyrrolo[2,1-f][1,2,4]triazin-5-yl]methyl}amino)-2-methylpropan-2-ol]"
3,0.92 nM,"Fc1cnccc1Nc1nc(-c2cccc(C(F)F)n2)nn2cccc12 [Example 78, N-{2-[6-(difluoromethyl)pyridin-2-yl]pyrrolo[2,1-f][1,2,4]triazin-4-yl}-3-fluoropyridin-4-amine]"
4,34 nM,"Cc1cccc(-c2nc(Nc3ccncc3C(=O)NC(C)(C)CO)c3cccn3n2)n1 [Example 157, N-(1-hydroxy-2-methylpropan-2-yl)-4-{[2-(6-methylpyridin-2-yl)pyrrolo[2,1-f][1,2,4]triazin-4-yl]amino}pyridine-3-carboxamide]"
5,5.6 nM,"CC(C)CC(=O)Nc1cc(Nc2nc(-c3cccc(C(F)(F)F)n3)nn3cccc23)ccn1 [Example 314, 3-methyl-N-[4-({2-[6-(trifluoromethyl)pyridin-2-yl]pyrrolo[2,1-f][1,2,4]triazin-4-yl}amino)pyridin-2-yl]butanamide]"
6,23 nM,"O=C(NCCOCCO)c1cnccc1Nc1nc(-c2cccc(C(F)F)n2)nn2cccc12 [Example 174, 4-({2-[6-(difluoromethyl)pyridin-2-yl]pyrrolo[2,1-f][1,2,4]triazin-4-yl}amino)-N-[2-(2-hydroxyethoxy)ethyl]pyridine-3-carboxamide]"
7,45 nM,"O=C(NCCCN1CCOCC1)c1cnccc1Nc1nc(-c2cccc(C(F)(F)F)n2)nn2cccc12 [Example 169, N-[3-(morpholin-4-yl)propyl]-4-({2-[6-(trifluoromethyl)pyridin-2-yl]pyrrolo[2,1-f][1,2,4]triazin-4-yl}amino)pyridine-3-carboxamide]"
8,0.92 nM,"Cc1csc(-c2nc(Nc3ccncc3Cl)c3cccn3n2)n1 [Example 87, 3-chloro-N-[2-(4-methyl-1,3-thiazol-2-yl)pyrrolo[2,1-f][1,2,4]triazin-4-yl]pyridin-4-amine]"
9,0.9 nM,"O=C(CN1CCCC1)Nc1cc(Nc2nc(-c3cccc(C(F)F)n3)nn3cccc23)ccn1 [Example 33, N-[4-({2-[6-(difluoromethyl)pyridin-2-yl]pyrrolo[2,1-f][1,2,4]triazin-4-yl}amino)pyridin-2-yl]-2-(pyrrolidin-1-yl)acetamide]"
10,630 nM,"COc1cccc(-c2nc(Nc3ccnc(F)c3)c3cccn3n2)n1 [Example 94, 2-fluoro-N-[2-(6-methoxypyridin-2-yl)pyrrolo[2,1-f][1,2,4]triazin-4-yl]pyridin-4-amine]"
11,3000 nM,"Fc1ccc(-c2nc(Nc3cc(Cl)ncc3F)c3cccn3n2)nc1 [Example 317, 2-chloro-5-fluoro-N-[2-(5-fluoropyridin-2-yl)pyrrolo[2,1-f][1,2,4]triazin-4-yl]pyridin-4-amine]"
12,950 nM,"COc1cccc(-c2nc(Nc3ccncc3F)c3c(C(O)CN4CCN(C)CC4)ccn3n2)n1 (stereo not shown) [Example 128, 1-{4-[(3-fluoropyridin-4-yl)amino]-2-(6-methoxypyridin-2-yl)pyrrolo[2,1-f][1,2,4]triazin-5-yl}-2-(4-methylpiperazin-1-yl)ethan-1-ol]"
13,0.4 nM,"Fc1cnccc1Nc1nc(-c2ccccn2)nn2ccc(CNCc3ccc4c(c3)OCO4)c12 [Example 294, N-(5-{[(2H-1,3-benzodioxol-5-ylmethyl)amino]methyl}-2-(pyridin-2-yl)pyrrolo[2,1-f][1,2,4]triazin-4-yl)-3-fluoropyridin-4-amine]"
14,30 nM,"COc1cccc(-c2nc(Nc3ccncc3F)c3cc(/C=C/CCO)cn3n2)n1 [Example 211, (3E)-4-{4-[(3-fluoropyridin-4-yl)amino]-2-(6-methoxypyridin-2-yl)pyrrolo[2,1-f][1,2,4]triazin-6-yl}but-3-en-1-ol]"
15,3.3 nM,"C[C@@H](NCc1ccn2nc(-c3ccccn3)nc(Nc3ccncc3F)c12)C(C)(C)C [Example 300, N-[5-({[(2R)-3,3-dimethylbutan-2-yl]amino}methyl)-2-(pyridin-2-yl)pyrrolo[2,1-f][1,2,4]triazin-4-yl]-3-fluoropyridin-4-amine]"
16,170 nM,"C[C@@H]1CN(CCNC(=O)c2cnccc2Nc2nc(-c3ccccn3)nn3cccc23)C[C@H](C)O1 [Example 146, N-{2-[cis-2,6-dimethylmorpholin-4-yl]ethyl}-4-{[2-(pyridin-2-yl)pyrrolo[2,1-f][1,2,4]triazin-4-yl]amino}pyridine-3-carboxamide]"
17,0.85 nM,"CC(=O)N1CCN(CC(=O)Nc2cc(Nc3nc(-c4cccc(C(F)(F)F)n4)nn4cccc34)ccn2)CC1 [Example 320, 2-(4-acetylpiperazin-1-yl)-N-[4-({2-[6-(trifluoromethyl)pyridin-2-yl]pyrrolo[2,1-f][1,2,4]triazin-4-yl}amino)pyridin-2-yl]acetamide]"

# Source: US10336761B2, “TGFβ receptor antagonist” (BRISTOL-MYERS SQUIBB COMPANY, priority 2015, dated 2019)
